Laboratory results reported in patent US20230241024A1, “METHODS OF TREATING METABOLIC DISORDERS” (Sunovion Pharmaceuticals Inc., priority 2021, published 2023).

Tests used:
lean male C57BL/6J mice = test: Acute oral glucose tolerance test (OGTT), plasma glucose and insulin, lean mice (Example 1.1); design: Plasma glucose AUC Mean: dose or concentration left out as unconfirmed
Method: (§1) A vehicle control group was included in the study design. […] Blood samples were taken at various timepoints during the test and subsequently assessed for plasma glucose and insulin content.
Mice were weighed on the day of arrival (Thursday) and singly housed upon arrival and throughout the study in polypropylene cages on a normal phase 12 h light-dark cycle (lights on 07:00). Cages contained sawdust, red acrylic house, red acrylic tunnel, sizzlenest and nestlet at a temperature of 21±4° C. Upon arrival, mice were weighed and given wet mash to aid recovery from transport. Mice were weighed the following day and on the Monday of the following week.
Experimental Procedures: Animals underwent a three-day handling phase, which commenced five days after arrival. On the final day of handling the mice were dosed orally once with vehicle. At the start of the handling phase, animals were weighed (to the nearest 0.1 g using an electronic top-pan balance) and allocated into 6 weight-matched treatment groups by a Statistician. On the day of baseline dosing, mice were fasted for approximately 16 hours to a timed schedule, beginning at 16:45. The mice were placed into individual clean cages with access to water, but not food. The following morning the mice were moved to a separate room which was maintained with the same environmental conditions and underwent an OGTT. […] Five minutes later, the mice in groups A, C, D, E and F were dosed by the oral route (30 minutes pre-glucose). […] All mice were given an oral glucose load of D-glucose at a dose of 2.0 g/kg (400 mg/mL solution; dose volume 5 mL/kg). Further blood samples (30 µl) were taken 3 minutes before glucose administration (B2) and at 15 (20 µl), 30 (20 µl), 60 (25 µl) and 120 (25 µl) minutes post glucose administration. All blood samples were collected into lithium heparinised tubes (Sarstedt Microvette CB300LH) and plasma separated by centrifugation to produce a single aliquot of plasma which was frozen (-80° C.) and subsequently assayed for glucose (Thermoelectron infinity glucose reagent, TR15421) and insulin (Alpco mouse ultrasensitive insulin kit 80 INSMSU-E10).
Upon completion of the OGTT, all animals were humanely killed by a Schedule 1 method (exposure to a rising concentration of CO2 with confirmation of death by cervical dislocation). A terminal blood sample was taken from groups A, C, D, E and F only by cardiac puncture into a lithium heparin-coated tube (Sarstedt CB300LH) and the plasma separated by centrifugation.

male db/db mice = test: Acute oral glucose tolerance test (OGTT), plasma glucose and insulin, diabetic db/db mice (Example 1.2)
Method: as §1
Mice were weighed on the day of arrival (Thursday) and group housed in polypropylene cages on a normal phase 12 h light-dark cycle (lights on 07:00). Cages contained sawdust, red house, red tunnel, Sizzlenest and nestlet at a temperature of 24±2° C. Upon arrival, mice were weighed and given wet mash to aid recovery from transport. Mice were weighed the following day and on the Monday of the following week.
Experimental Procedures: Animals underwent a three-day handling phase, which commenced five days after arrival. On the final day of handling the mice were dosed orally once with vehicle. At the start of the handling phase, animals were weighed (to the nearest 0.1 g using an electronic top-pan balance) and allocated into 6, weight matched treatment groups by a Statistician. On the day of baseline dosing, mice were fasted for approximately 16 hours to a timed schedule, beginning at 16:45. The mice were placed into individual clean cages with access to water, but not food. The following morning the mice were moved to a separate room which was maintained with the same environmental conditions and underwent an OGTT. […] Five minutes later, the mice in groups A, C, D, E and F were dosed by the oral route (30 minutes pre-glucose). […] All mice were given an oral glucose load of D-glucose at a dose of 2.0 g/kg (400 mg/mL solution; dose volume 5 mL/kg). Further blood samples (30 µl) were taken 3 minutes before glucose administration (B2) and at 15 (20 µl), 30 (20 µl), 60 (25 µl) and 120 (25 µl) minutes post glucose administration. All blood samples were collected into lithium heparinised tubes (Sarstedt Microvette CB300LH) and plasma separated by centrifugation to produce a single aliquot of plasma which was frozen (-80° C.) and subsequently assayed for glucose (Thermoelectron infinity glucose reagent, TR15421) and insulin (Alpco mouse ultrasensitive insulin kit 80 INSMSU-E10).
Upon completion of the OGTT, all animals were humanely killed by a Schedule 1 method (exposure to a rising concentration of CO2 with confirmation of death by cervical dislocation). A terminal blood sample was taken from groups A, C, D, E and F only by cardiac puncture into a lithium heparin-coated tube (Sarstedt CB300LH) and the plasma separated by centrifugation. A single plasma aliquot (approximately 100 µl) was stored frozen prior to shipment of the compound to Charles River Laboratories, USA.

[1] = test system: lean, fasted, male CD1 mice; test: Acute intravenous glucose tolerance test (IVGTT), plasma glucose and insulin (Example 6)
Method: as §1
Via a lateral tail vein, a baseline blood sample (B1; 30 µl) was taken from all animals prior to vehicle or drug treatment. Five minutes later, mice were dosed with Treatment 1 detailed by the oral route (see above table; approx. 30 minutes pre-glucose). Thirty minutes later, mice were dosed with Treatment 2 by the intravenous route (by a lateral tail vein). […] A B2 sample (30 µl) was also taken briefly before glucose administration. All blood samples (from the tail vein) were collected into lithium heparinised tubes (Sarstedt Microvette CB300LH) and plasma separated by centrifugation to produce a single aliquot of plasma which was frozen (approx. -80° C.) and subsequently assayed for glucose (Thermoelectron infinity glucose reagent, TR15421) and insulin (Alpco Ultrasensitive mouse insulin ELISA) as single replicates.

[2] = 15 minutes, Exendin-4 1 µg/kg ip
[3] = 30 minutes, Exendin-4 1 µg/kg ip
[4] = 60 minutes, Exendin-4 1 µg/kg ip
[5] = 120 minutes, Exendin-4 1 µg/kg ip
[6] = AUC above baseline (0-60 minutes), Exendin-4 1 µg/kg ip
[7] = AUC above baseline (0-120 minutes), Exendin-4 1 µg/kg ip
[8] = Area under curve (0-60 minutes), Exendin-4 1 µg/kg ip
[9] = Area under curve (0-120 minutes), Exendin-4 1 µg/kg ip
[10] = Area under curve (0-120 minutes), Exendin-4 ip
[11] = Post-treatment baseline (B2), Exendin-4 1 µg/kg ip
[12] = 15 minutes, Exendin-4 300 µg/kg ip
[13] = 30 minutes, Exendin-4 300 µg/kg ip
[14] = 60 minutes, Exendin-4 300 µg/kg ip
[15] = 120 minutes, Exendin-4 300 µg/kg ip
[16] = AUC above baseline (0-60 minutes), Exendin-4 300 µg/kg ip
[17] = AUC above baseline (0-120 minutes), Exendin-4 300 µg/kg ip
[18] = Area under curve (0-60 minutes), Exendin-4 300 µg/kg ip
[19] = Area under curve (0-60 minutes), Exendin-4 300 µpg/kg ip
[20] = Area under curve (0-120 minutes), Exendin-4 300 µg/kg ip
[21] = Area under curve (0–120 minutes), Exendin-4 300 µg/kg ip
[22] = Post-treatment baseline (B2), Exendin-4 300 µg/kg ip
[23] = 40 µg/kg iv group, Post-treatment baseline (B2)
[24] = 40 µg/kg iv with Glucose 1 g/kg
[25] = 40 µg/kg iv with Glucose 1 g/kg, 5 minutes
[26] = 40 µg/kg iv with Glucose 1 g/kg, 10 minutes
[27] = 40 µg/kg iv with Glucose 1 g/kg, 30 minutes
[28] = 40 µg/kg iv with Glucose 1 g/kg, 60 minutes

Exendin-4: GLP 1 receptor agonist utilised as a positive control
Plasma glucose % of vehicle (lean male C57BL/6J mice; [2]): 65.9% | Plasma glucose Mean (lean male C57BL/6J mice; [2]): 15.13 mM | Plasma insulin % of vehicle (lean male C57BL/6J mice; [2]): 154.4% | Plasma insulin Mean (lean male C57BL/6J mice; [2]): 1.92 ng/mL | Plasma glucose % of vehicle (lean male C57BL/6J mice; [3]): 53.3% | Plasma glucose Mean (lean male C57BL/6J mice; [3]): 12.81 mM | Plasma insulin % of vehicle (lean male C57BL/6J mice; [3]): 110.3% | Plasma insulin Mean (lean male C57BL/6J mice; [3]): 1.10 ng/mL | Plasma glucose % of vehicle (lean male C57BL/6J mice; [4]): 58.4% | Plasma glucose Mean (lean male C57BL/6J mice; [4]): 8.56 mM | Plasma insulin % of vehicle (lean male C57BL/6J mice; [4]): 73.1% | Plasma insulin Mean (lean male C57BL/6J mice; [4]): 0.37 ng/mL | Plasma glucose % of vehicle (lean male C57BL/6J mice; [5]): 74.8% | Plasma glucose Mean (lean male C57BL/6J mice; [5]): 7.46 mM | Plasma insulin % of vehicle (lean male C57BL/6J mice; [5]): 63.5% | Plasma insulin Mean (lean male C57BL/6J mice; [5]): 0.27 ng/mL | Plasma glucose AUCB2 Difference from vehicle (lean male C57BL/6J mice; [6]): -8.32 mM·h | Plasma glucose AUCB2 Mean (lean male C57BL/6J mice; [6]): 1.49 mM·h | Plasma insulin AUC above baseline Difference from vehicle (lean male C57BL/6J mice; [6]): 0.02 ng·h/mL | Plasma insulin AUC above baseline Mean (lean male C57BL/6J mice; [6]): 0.72 ng·h/mL | Plasma glucose AUCB2 Difference from vehicle (lean male C57BL/6J mice; [7]): -12.99 mM·h | Plasma glucose AUCB2 Mean (lean male C57BL/6J mice; [7]): -0.58 mM·h | Plasma insulin AUC above baseline Difference from vehicle (lean male C57BL/6J mice; [7]): -0.28 ng·h/mL | Plasma insulin AUC above baseline Mean (lean male C57BL/6J mice; [7]): 0.76 ng·h/mL | Plasma glucose AUC % of vehicle (lean male C57BL/6J mice; [8]): 61.5% | Plasma insulin AUC % of vehicle (lean male C57BL/6J mice; [8]): 125.7% | Plasma insulin AUC Mean (lean male C57BL/6J mice; [8]): 1.06 ng·h/mL | Plasma insulin AUC % of vehicle (lean male C57BL/6J mice; [9]): 110.9% | Plasma insulin AUC Mean (lean male C57BL/6J mice; [9]): 1.48 ng·h/mL | Plasma glucose AUC % of vehicle (lean male C57BL/6J mice; [10]): 63.6% | Plasma glucose AUC Mean (lean male C57BL/6J mice; [10]): 20.44 mM·h | plasma glucose vs vehicle (lean male C57BL/6J mice; Exendin-4 1 µg/kg ip 10 minutes before glucose load, all timepoints post-glucose): statistically significant (p<0.01) reduction | Plasma glucose % of vehicle (lean male C57BL/6J mice; [11]): 111.4% | Plasma glucose Mean (lean male C57BL/6J mice; [11]): 10.66 mM | Plasma insulin % of vehicle (lean male C57BL/6J mice; [11]): 221.2% | Plasma insulin Mean (lean male C57BL/6J mice; [11]): 0.34 ng/mL | Plasma glucose % of vehicle (male db/db mice; [12]): 39.5% | Plasma glucose Mean (male db/db mice; [12]): 20.37 mM | Plasma insulin % of vehicle (male db/db mice; [12]): 176.4% | Plasma insulin Mean (male db/db mice; [12]): 11.33 ng/mL | Plasma glucose % of vehicle (male db/db mice; [13]): 34.7% | Plasma glucose Mean (male db/db mice; [13]): 19.07 mM | Plasma insulin % of vehicle (male db/db mice; [13]): 228.5% | Plasma insulin Mean (male db/db mice; [13]): 9.42 ng/mL | Plasma glucose % of vehicle (male db/db mice; [14]): 32.9% | Plasma glucose Mean (male db/db mice; [14]): 12.91 mM | Plasma insulin % of vehicle (male db/db mice; [14]): 210.5% | Plasma insulin Mean (male db/db mice; [14]): 8.95 ng/mL | Plasma glucose % of vehicle (male db/db mice; [15]): 52.4% | Plasma glucose Mean (male db/db mice; [15]): 10.71 mM | Plasma insulin % of vehicle (male db/db mice; [15]): 238.7% | Plasma insulin Mean (male db/db mice; [15]): 9.87 ng/mL | Plasma glucose AUC above baseline Difference from vehicle (male db/db mice; [16]): -28.49 mM·h | Plasma glucose AUC above baseline Mean (male db/db mice; [16]): -1.09 mM·h | Plasma insulin AUC above baseline Difference from vehicle (male db/db mice; [16]): -0.08 ng·h/mL | Plasma insulin AUC above baseline Mean (male db/db mice; [16]): 0.89 ng·h/mL | Plasma glucose AUC above baseline Difference from vehicle (male db/db mice; [17]): -47.99 mM·h | Plasma glucose AUC above baseline Mean (male db/db mice; [17]): -8.04 mM·h | Plasma insulin AUC above baseline Difference from vehicle (male db/db mice; [17]): -0.35 ng·h/mL | Plasma insulin AUC above baseline Mean (male db/db mice; [17]): 0.98 ng·h/mL | Plasma insulin AUC % of vehicle (male db/db mice; [18]): 213.0% | Plasma insulin AUC Mean (male db/db mice; [18]): 9.93 ng·h/mL | Plasma glucose AUC % of vehicle (male db/db mice; [19]): 38.8% | Plasma glucose AUC Mean (male db/db mice; [19]): 17.77 mM·h | Plasma insulin AUC % of vehicle (male db/db mice; [20]): 223.1% | Plasma insulin AUC Mean (male db/db mice; [20]): 19.34 ng·h/mL | Plasma glucose AUC % of vehicle (male db/db mice; [21]): 39.6% | Plasma glucose AUC Mean (male db/db mice; [21]): 30.22 mM·h | plasma glucose vs vehicle (male db/db mice; Exendin-4 300 µg/kg ip, all timepoints post-glucose): statistically significant (p<0.001) reduction | Plasma glucose Mean (male db/db mice; [22]): 17.81 mM | Plasma insulin % of vehicle (male db/db mice; [22]): 227.2% | Plasma insulin Mean (male db/db mice; [22]): 8.99 ng/mL | Plasma glucose % of vehicle [1, 23]: 98.6% | Plasma glucose Mean [1, 23]: 9.30 mM | Plasma insulin % of vehicle [1, 23]: 95.1% | Plasma insulin Mean [1, 23]: 0.17 ng/mL | Plasma glucose - AUC above baseline (AUCB2) (0-60 minutes), Mean [1, 24]: 3.22 mM·h | Plasma glucose AUC (0-60 minutes), % of vehicle [1, 24]: 73.5% | Plasma glucose AUC, Area under curve (0-60 minutes), Mean [1, 24]: 12.65 mM·h | Plasma glucose AUCB2 (0-60 minutes), Difference from vehicle [1, 24]: -4.43 mM·h | Plasma insulin - AUC above baseline (AUCB2) (0-60 minutes), Mean [1, 24]: 0.73 ng·h/mL | Plasma insulin - Area under curve AUC (0-60 minutes), Mean [1, 24]: 0.93 ng·h/mL | Plasma insulin AUC (0-60 minutes), % of vehicle [1, 24]: 218.8% | Plasma insulin AUCB2 (0-60 minutes), Difference from vehicle [1, 24]: 0.48 ng·h/mL | Plasma glucose % of vehicle [1, 25]: 92.6% | Plasma glucose Mean [1, 25]: 28.43 mM | Plasma insulin % of vehicle [1, 25]: 347.3% | Plasma insulin Mean [1, 25]: 1.99 ng/mL | Plasma glucose % of vehicle [1, 26]: 89.4% | Plasma glucose Mean [1, 26]: 22.15 mM | Plasma insulin % of vehicle [1, 26]: 327.2% | Plasma insulin Mean [1, 26]: 1.84 ng/mL | Plasma glucose % of vehicle [1, 27]: 59.0% | Plasma glucose Mean [1, 27]: 8.35 mM | Plasma insulin % of vehicle [1, 27]: 149.8% | Plasma insulin Mean [1, 27]: 0.57 ng/mL | Plasma glucose % of vehicle [1, 28]: 57.8% | Plasma glucose Mean [1, 28]: 6.36 mM | Plasma insulin % of vehicle [1, 28]: 117.2% | Plasma insulin Mean [1, 28]: 0.42 ng/mL | plasma insulin vs vehicle ([1]; Exendin-4 40 µg/kg iv, 5, 10 and 30 minutes post glucose load): statistically significant increase | Plasma insulin peak ([1]; Exendin-4 40 µg/kg iv, 5 minutes post glucose load): 1.99 ng/mL
